Experimental findings from BindingDB's records for doi:10.1021/acschembio.6b00357 (Uppsala University, 2016) are described below.

Common to all, as to experiment: Radioligand Binding Assay
For one test, the target named is T1, Adenosine receptor A3 (Homo sapiens, UniProt P0DMS8).
T1 sequence (P0DMS8 whole entry): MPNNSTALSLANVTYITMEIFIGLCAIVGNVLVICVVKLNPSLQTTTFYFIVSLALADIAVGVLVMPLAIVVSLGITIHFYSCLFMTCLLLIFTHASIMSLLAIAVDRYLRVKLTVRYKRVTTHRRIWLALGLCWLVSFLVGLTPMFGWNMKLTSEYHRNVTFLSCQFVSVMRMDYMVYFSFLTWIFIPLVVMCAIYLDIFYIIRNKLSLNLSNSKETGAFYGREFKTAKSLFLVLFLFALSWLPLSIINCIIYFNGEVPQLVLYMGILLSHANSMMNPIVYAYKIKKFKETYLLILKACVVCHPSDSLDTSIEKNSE
The procedure: (§1) Nonspecific binding was determined using adenosine-′-Nethyluronamideat 10 μM concentration.

Another test deals with T2, Adenosine receptor A1 (Homo sapiens, UniProt P30542).
T2 sequence (P30542 whole entry): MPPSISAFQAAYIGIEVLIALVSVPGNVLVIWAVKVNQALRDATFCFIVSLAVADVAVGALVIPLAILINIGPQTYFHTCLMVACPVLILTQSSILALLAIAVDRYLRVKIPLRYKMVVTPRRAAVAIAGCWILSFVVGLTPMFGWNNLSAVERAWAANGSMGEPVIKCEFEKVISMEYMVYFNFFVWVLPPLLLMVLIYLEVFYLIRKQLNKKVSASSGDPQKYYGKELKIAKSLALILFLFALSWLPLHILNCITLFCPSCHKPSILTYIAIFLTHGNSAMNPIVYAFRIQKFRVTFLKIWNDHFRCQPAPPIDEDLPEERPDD
The method, then: as §1

Another test deals with Adenosine receptor A2a (Homo sapiens, UniProt P29274). The procedure:
as §1

SMILES strings stand for the structures.

Adenosine receptor A2a, sequence (P29274 whole entry): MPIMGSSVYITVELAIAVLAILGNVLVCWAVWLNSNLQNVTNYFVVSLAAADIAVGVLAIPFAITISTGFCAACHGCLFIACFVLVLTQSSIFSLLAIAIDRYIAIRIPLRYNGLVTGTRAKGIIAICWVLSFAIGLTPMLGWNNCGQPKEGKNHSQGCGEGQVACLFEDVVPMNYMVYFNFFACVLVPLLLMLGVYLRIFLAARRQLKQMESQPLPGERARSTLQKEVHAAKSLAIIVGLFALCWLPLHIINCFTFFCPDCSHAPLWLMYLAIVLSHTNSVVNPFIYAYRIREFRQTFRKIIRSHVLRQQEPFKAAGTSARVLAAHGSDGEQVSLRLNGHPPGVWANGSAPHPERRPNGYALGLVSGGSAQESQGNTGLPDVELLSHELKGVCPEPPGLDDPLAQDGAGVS

Regarding `Cc1cn([C@@H]2O[C@H](CO)[C@@H](O)[C@H]2O)c(=O)nc1N` [Adenosine receptor agonist, 13], at Adenosine receptor A3, the affinity, expressed as Ki, was 8020 nM. In other words, the single-digit micromolar range. For `Nc1nc(=O)[nH]c2c1ncn2[C@@H]1O[C@H](CO)[C@@H](O)[C@H]1O` [Adenosine receptor agonist, 9], the figures for the Ki on Adenosine receptor A3, at Adenosine receptor A1 and at Adenosine receptor A2a were 348 nM, 467 nM and 495 nM, respectively.

Take `Nc1cccc2c1ncn2[C@@H]1O[C@H](CO)[C@@H](O)[C@H]1O` [Adenosine receptor agonist, 7]: the Ki at Adenosine receptor A3 turned out to be 823 nM. That is a sub-micromolar value. With `Nc1ccnc2c1ncn2[C@@H]1O[C@H](CO)[C@@H](O)[C@H]1O` [1-DEAZA-ADENOSINE], the Ki was 583 nM at Adenosine receptor A3, 84 nM at Adenosine receptor A1 and 645 nM at Adenosine receptor A2a. For `Nc1ncn([C@@H]2O[C@H](CO)[C@@H](O)[C@H]2O)c(=O)c1Cl` [Adenosine receptor agonist, 14], the Ki at Adenosine receptor A3 is 557 nM; at Adenosine receptor A1, 359 nM. On to `Nc1nccc2c1ncn2[C@@H]1O[C@H](CO)[C@@H](O)[C@H]1O` [CAS_6736-58-9], for which affinity on Adenosine receptor A1 was put at a Ki of 461 nM.

What is called Ki is the equilibrium dissociation constant of an inhibitor or competing ligand from its target.
